We go through one molecule from patent US20230363335A1, “STANDARDIZED AND VIRUS-FREE RAPID PROPAGATION METHOD OF DIANTHUS CARYOPHYLLUS” (Flower Research Institute, Yunnan Academy of Agricultural …, priority 2022, published 2023).

Assay [1] has as its system Carnation mottle virus (CarMV) and Carnation necrotic fleck virus (CNFV). Briefly: Virus-free culture, ribavirin combined with shoot apex peeling: virus-free regenerated plants. Format: in vivo, Dianthus caryophyllus. Conditions: 3 mg/L to 5 mg/L ribavirin in medium, 30 d to 40 d; for Number of virus-free regenerated plant (s): 30 shoot apexes. On the procedure:
Double-antibody sandwich ELISA included: 100 µL of an antibody diluted to a working concentration with a coating buffer was added to wells of a microtiter plate, the microtiter plate was placed in a wet box, and incubated in a refrigerator at 4° C. overnight, or incubated at room temperature (20° C. to 25° C.) for 4 h. The coating buffer was a 0.05 mol/L Na2CO3—NaHCO3 buffer, at a pH value of 9.6. Dianthus caryophyllus leaves and a grinding buffer were put in a disposable ziplock bag at a ratio of 1:10 (W/V), the bag was sealed tightly, and the sample was ground. The grinding buffer was obtained by: dissolving 2.0 g of a skim milk powder, 10.0 g of polyvinylpyrrolidone (PVP, MW24,000-40,000), 1.3 g of anhydrous sodium sulfite, 0.2 g of NaN3, and 10.0 g of Tween-20 in a washing buffer (PBST), diluting to 1,000 mL, and storing at 4° C. The washing buffer (PBST) was obtained by: dissolving 8.0 g of NaCl, 0.2 g of KH2PO4, 2.9 g of Na2HPO4·12H2O, 0.2 g of KCl, and 0.5 mL of Tween-20 in distilled water, diluting to 1,000 mL, and adjusting to a pH value of 7.4. After incubation, the microtiter plate was washed 4 to 6 times with the washing buffer. 400 µL of the PBST washing buffer was added to each well and held for 1 min to 2 min each time. 100 µL of a supernatant after grinding was added to each well, and each sample to be tested was repeated twice, and a negative control and a positive control were set at the same time. The microtiter plate was placed in a wet box, incubated in a refrigerator at 4° C. overnight or incubated at 21° C. to 24° C. for 2.5 h. The plate was washed. An enzyme-labeled antibody was prepared 10 min before coating, a dilution buffer of the specific enzyme-labeled antibody was diluted to a working concentration, and 100 µL was added to each well. The microtiter plate was placed in a wet box, incubated at 21° C. to 24° C. for 2.5 h. The plate was washed. The dilution buffer of the enzyme-labeled antibody was obtained by: dissolving 2.0 g of bovine serum albumin (BSA), 10.0 g of PVP (MW24,000-40,000), and 0.2 g of NaN3 in the PBST, diluting to 1,000 mL, and storing at 4° C. 100 µL of a substrate solution was added to each well. The substrate solution was prepared for immediate use by: dissolving 1 mg of PNPP in 1 mL of a substrate buffer, with a concentration of 1 mg/mL. The substrate buffer is obtained by: dissolving 97.0 mL of diethanolamine, 0.1 g of magnesium chloride, and 0.2 g of NaN3 in 800 mL of distilled water, adjusting to a pH value of 9.8 with 2 mol/L hydrochloric acid, diluting to 1000 mL, and storing at 4° C. The microtiter plate was placed in a wet box, to conduct color development at 21° C. to 24° C. for 30 min to 60 min in the dark. 50 µL of a stop solution was added to each well to stop the reaction. The stop solution was a sodium hydroxide solution of 3 mol/L. Within 20 min of stopping the reaction, the microtiter plate was placed in a microplate reader, an absorbance (OD405) was measured at 405 nm, and a reaction result was recorded. If an average OD value of the sample was greater than 2 times an OD value of the negative control, it was determined to be the CarMV.
The indirect ELISA included: Dianthus caryophyllus leaves and an indirect sample extraction buffer were placed in a disposable ziplock bag at a ratio of 1:100 (W/V), the bag was sealed tightly, and the sample was ground. The sample extraction buffer was obtained by: dissolving 20.1 g of PVP (MW24,000-40,000), 0.2 g of NaN3, 3.0 g of NaHCO3, and 1.6 g of Na2CO3 in distilled water, diluting to […], and storing at 4° C. 100 µL of a supernatant after grinding was added to each well, and each sample to be tested was repeated twice, and a negative control and a positive control were set at the same time. The microtiter plate was placed in a wet box and incubated at room temperature for 1 h. After incubation, the microtiter plate was washed 8 times with the PBST washing buffer. […]

For assay [2], the system named is Dianthus caryophyllus shoot apex. Description: Virus-free culture, ribavirin combined with shoot apex peeling: regeneration of peeled shoot apex. Format: in vivo. Conditions: 3 mg/L to 5 mg/L ribavirin in medium, 30 d to 40 d; for Number of regenerated plant (s): 30 shoot apexes. From the text:
After the explant germinated and buds grew to 2 cm to 3 cm, the buds were cut and subjected to virus-free culture; three virus-free methods were used, and the most suitable virus-free method was selected for Dianthus caryophyllus. • (1) Directly shoot apex peeling method: the material was placed on an ultra-clean workbench, and tender leaves were peeled off with tweezers and a scalpel under the naked eye to expose a growth cone; a base of the bud was fixed with tweezers, and the shoot apex was continued to be peeled under a dissecting microscope at 25 to 50 times; when peeling to a growth point containing 1 to 2 pairs of leaf primordia, the shoot apex was picked on a medium with the tip of a knife. • (2) High-temperature treatment combined with shoot apex peeling method: the material was placed in a KBWF720 artificial climate box, and incubated for 30 d to 35 d at 38° C. ± 1° C. every day, with illumination for 14 h to 16 h at 1,200 Lux to 1,500 Lux, and then with darkness for 8 h to 10 h; and the shoot apex was continued to be peeled under a dissecting microscope at 25 to 50 times; when peeling to a growth point containing 1 to 2 pairs of leaf primordia, the shoot apex was picked on a medium with the tip of a knife. • (3) Ribavirin combined with shoot apex peeling method: the material was inoculated on a medium containing ribavirin for culture, namely MS+BA 0.5 mg/L to 1.5 mg/L+NAA 0.1 mg/L to 0.3 mg/L+3 mg/L to 5 mg/L ribavirin+A Agar 6.0 g/L, 3% sucrose, at a pH value of 5.8 to 6.0; after culturing for 30 d to 40 d, the shoot apex was peeled off.
The peeled shoot apex was inoculated on a medium including MS+BA 0.5 mg/L to 1.0 mg/L+NAA 0.1 mg/L to 0.3 mg/L+A agar 6.0 g/L, 3% sucrose, at a pH value of 5.8 to 6.0; each shoot apex was cultured and numbered separately; the culture was conducted at 22±1° C. and an illumination intensity of 2,000 Lux to 4,000 Lux with an illumination time of 10 h/d to 12 h/d.

[3] abbreviates: growth point of peeled shoot apex 0.2 mm.
[4] abbreviates: growth point of peeled shoot apex 0.4 mm.
Setting [5] is: growth point of peeled shoot apex 0.6 mm.
[6] abbreviates: growth point of peeled shoot apex 0.8 mm.
Where [7] appears, read: growth point of peeled shoot apex 1.0 mm.

Consider `NC(=O)c1ncn([C@@H]2O[C@H](CO)[C@@H](O)[C@H]2O)n1` [Ribavirin, ribavirin], for which the “Virus-free rate (%)” value worked out at 33.33% in assay [1] (setting [3]); 30.00% in assay [1] (setting [4]); 26.67% in assay [1] (setting [5]); 20.00% in assay [1] (setting [6]); 10.00% in assay [1] (setting [7]). The “Number of virus-free regenerated plant (s)” value came out at 10 in assay [1] (setting [3]); 9 in assay [1] (setting [4]); 8 in assay [1] (setting [5]); 6 in assay [1] (setting [6]); 3 in assay [1] (setting [7]). Also, the “Regeneration rate (%)” value worked out at 53.33% in assay [2] (setting [3]); 63.33% in assay [2] (setting [4]); 73.33% in assay [2] (setting [5]); 86.67% in assay [2] (setting [6]); 96.67% in assay [2] (setting [7]). The “Number of regenerated plant (s)” value is 16 in assay [2] (setting [3]); 19 in assay [2] (setting [4]); 22 in assay [2] (setting [5]); 26 in assay [2] (setting [6]); 29 in assay [2] (setting [7]).
